# “Also recorded” adds a separate entry of the source. Where a SMILES comes first, the peptide text is derived from it.
# What was measured:
# [1] = Stability of variants: threaded-to-unthreaded peptide in supernatant extract by LC-MS; assay type: physicochemical; details: for threaded versus unthreaded peptide in supernatant extract (stability against unthreading): heating and carboxypeptidase assays, compared with wild-type; for Stability Relative to WT: ratio of threaded-to-unthreaded peptide in supernatant extract after purification
# [2] = test system: carboxypeptidase B and carboxypeptidase Y; experiment: Carboxypeptidase digestion; assay type: in vitro ADME
# Method: Carboxypeptidase assays were done in 50 μL of 50 mM sodium acetate, pH 6.0 with 1 unit each of carboxypeptidase B and carboxypeptidase Y. Reactions were incubated overnight at 20° C. for 16 hours and then quenched with 1% formic acid. An aliquot of the reaction was then injected onto LC-MS to compare with an untreated control.
# [3] = test system: Enterobacter amnigenus ATCC 33072; assay type: cell-based; details: against Enterobacter amnigenus (FIG. 28, peptides at 10 μM; Y10A FIG. 34)
# Method: Cloacaenodin was evaluated against several common laboratory strains as well as commercially acquired strains using a spot-on-lawn assay.^45 Strains were streaked out onto LB agar plates and incubated overnight at their recommended temperatures. A single colony was then used to inoculate an overnight culture in 5 mL of LB broth. After shaking at 250 rpm at the recommended temperature for each strain, 50 μL of the overnight culture was used to inoculate 5 mL of LB broth (volume ratio 1:100). These cultures were grown for a few hours until they reached the exponential phase (OD600˜0.4-0.6) before being added to 10 mL of soft M63 agar at a final cell density of 10^7 CFUs/mL, or 10^8 CFUs total in 10 mL. The M63 soft agar was composed of 2 g/L of (NH4)2SO4 (EMD MilliporeSigma), 13.6 g/L of KH2PO4 (Fisher), 40 mg/L of each of the 20 common amino acids, 0.2% glucose (Sigma), 0.00005% w/v thiamine hydrochloride (Sigma), and 0.65% w/v bacteriological-grade agar (Apex Bioresearch). […] Upon solidification, 10 μL of purified cloacaenodin in water at two-fold dilutions were then spotted onto the agar and allowed to dry. The plates were incubated overnight at the strains' recommended temperatures and analyzed the next morning for activity. The MIC is defined as the last dilution where a spot was visible.
# [4] = test system: Enterobacter cloacae BIDMC120; details: strain BIDMC120; cited from earlier work
# [5] = test system: Enterobacter hormaechei BIDMC87; details: strain BIDMC87; cited from earlier work
# [6] = test system: Enterobacter hormaechei BWH39; details: strain BWH39; cited from earlier work
# [7] = test system: Enterobacter cloacae MGH3; details: strain MGH3; cited from earlier work
# [8] = test system: Enterobacter hormaechei UCI35; details: strain UCI35; cited from earlier work
# [9] = test system: Enterobacter kobei MGH178; details: strain MGH178; cited from earlier work
# [10] = test system: Enterobacter ludwigii MGH216; details: strain MGH216; cited from earlier work
# [11] = test system: Enterobacter roggenkampii MGH239; details: strain MGH239; cited from earlier work
# [12] = test system: Enterobacter asburiae MGH243; details: strain MGH243; cited from earlier work
# [13] = test system: Enterobacter cloacae UCI102; details: strain UCI102; cited from earlier work
# [14] = test system: Enterobacter asburiae UCI193; details: strain UCI193; cited from earlier work
# [15] = test system: Escherichia coli XL-1 Blue; experiment: Intracellular toxicity: IPTG-induced expression from plasmid lacking cloD; assay type: cell-based; details: IPTG induction
# Method: After characterizing the structure and proteolytic resistance of cloacaenodin, cloacaenodin's inhibition of bacterial growth was tested. As a preliminary test of antimicrobial activity, a version of the expression plasmid from which the cloD gene was removed was cloned, so that the lasso peptide could not be exported by the Escherichia coli upon isopropyl β-D-1-thiogalactopyranoside (IPTG)-induced expression.
# Cloacaenodin variants were constructed using site-directed mutagenesis. Mutant precursor genes were amplified from the wild-type precursor in pAK2 using mutagenic primers. Following PCR amplification of the mutated precursor gene, the purified PCR product was digested and ligated into pAK2 with the EcoRI and HindIII restriction sites. For the pMP3 plasmid for deletion of the cloD gene, the D gene was first disrupted by digestion of pAK2 with BamHI and NcoI, which removed the entire cloD gene and the C-terminal portion of the cloC gene. The digested plasmid was then ligated with an insert that restored the C-terminal portion of the cloC gene. All mutants were sequence confirmed by Genewiz (now Azenta) before use.
# [16] = target: T1, Thermolysin (Geobacillus stearothermophilus, UniProt P43133); experiment: Protease digestion, thermolysin; assay type: in vitro ADME; details: 50 μM peptide, 30° C., about 1 hour, LC-MS
# T1 construct: purchased Sigma-Aldrich
# T1 sequence (P43133 236-551): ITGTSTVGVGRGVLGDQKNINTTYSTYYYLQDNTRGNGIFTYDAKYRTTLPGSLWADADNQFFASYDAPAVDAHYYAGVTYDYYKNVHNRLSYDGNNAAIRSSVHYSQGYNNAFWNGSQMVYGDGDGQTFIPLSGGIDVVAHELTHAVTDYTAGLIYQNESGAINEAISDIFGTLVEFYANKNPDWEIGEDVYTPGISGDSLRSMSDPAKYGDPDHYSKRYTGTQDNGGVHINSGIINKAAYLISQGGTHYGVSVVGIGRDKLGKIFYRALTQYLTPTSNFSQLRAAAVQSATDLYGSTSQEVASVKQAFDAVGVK
# Method: Thermolysin from Geobacillus stearothermophilus (Sigma-Aldrich) was first resuspended in 50 mM Tris, 0.5 mM CaCl2). The enzyme was then added to 50 μM peptide samples at a final concentration of about 0.04 mg/mL in a buffer of 50 mM Tris, 0.5 mM CaCl2), pH 8. The reactions were then allowed to incubate at 30° C. for about 1 hour before quenching with 1% formic acid. An aliquot was then injected onto LC-MS for analysis.
compound,measurement,setting,value
"GHSVDRIAEYFGPPGLPGPVLFYS [Cloacaenodin P8A, 109]",threaded versus unthreaded peptide in supernatant extract (stability against unthreading),[1],a dramatic decrease in the ratio of threaded-to-unthreaded peptide in the extract for a cloacaenodin P8A variant (FIG. 32) was not observed
same,Stability Relative to WT,[1],Comparable
"CC[C@H](C)[C@@H]1NC(=O)[C@H](CCCNC(=N)N)NC(=O)[C@H](CC(=O)O)NC(=O)[C@H](C(C)C)NC(=O)[C@H](CO)NC(=O)[C@H](Cc2c[nH]cn2)NC(=O)CNC(=O)CC[C@@H](C(=O)N[C@@H](Cc2ccc(O)cc2)C(=O)N[C@@H](Cc2ccccc2)C(=O)NCC(=O)N2CCC[C@H]2C(=O)N2CCC[C@H]2C(=O)NCC(=O)N[C@@H](CC(C)C)C(=O)N2CCC[C@H]2C(=O)NCC(=O)N2CCC[C@H]2C(=O)N[C@H](C(=O)N[C@@H](CC(C)C)C(=O)N[C@@H](Cc2ccccc2)C(=O)N[C@@H](Cc2ccc(O)cc2)C(=O)NCC(=O)O)C(C)C)NC(=O)[C@@H]2CCCN2C1=O [Cloacaenodin S24G] (HELM PEPTIDE1{G.H.S.V.D.R.I.P.E.Y.F.G.P.P.G.L.P.G.P.V.L.F.Y.G}$PEPTIDE1,PEPTIDE1,1:R1-9:R3$$$V2.0; C-terminus assumed; bridges inferred)",proteolysis by carboxypeptidase,[2]; pH 6,susceptibility to carboxypeptidase
GHSVADRIPEYFGPPGLPGPVLFYS [Cloacaenodin 10-membered ring],proteolysis by carboxypeptidase,"[2]; carboxypeptidase B and Y, pH 6.0, 20° C., 16 hours, LC-MS",susceptible to degradation by carboxypeptidase
same,Stability Relative to WT,[1],Less
GHSVDRIPEYFGPPGLPGPVLWYS [Cloacaenodin F22W],Bioactivity Relative to WT,[3],Comparable
same,threaded versus unthreaded peptide in supernatant extract (stability against unthreading),[1],comparable levels of unthreaded peptide
same,Stability Relative to WT,[1],Comparable
C[C@@H](O)[C@H]1C(=O)N2C(C(=O)O)=C(S[C@@H]3CN[C@H](C(=O)N(C)C)C3)[C@H](C)[C@H]12 [Meropenem],Meropenem MIC,[4],4 mg/L
same,Meropenem MIC,[5],16 mg/L
same,Meropenem MIC,[6],2 mg/L
same,Meropenem MIC,[7],≥16 mg/L
same,Meropenem MIC,[8],4 mg/L
same,Meropenem MIC,[9],≤0.25 mg/L
same,Meropenem MIC,[10],≤0.25 mg/L
same,Meropenem MIC,[11],1 mg/L
same,Meropenem MIC,[12],16 mg/L
same,Meropenem MIC,[13],0.063 mg/L
same,Meropenem MIC,[14],23 mg/L
"GHSVDRIPEAFGPPGLPGPVLFYS [Cloacaenodin Y10A, 118]",Bioactivity Relative to WT,[3],Much less
same,intracellular toxicity (growth of E. coli on IPTG without CloD),[15],not toxic intracellularly
same,intracellular toxicity (growth of E. coli on IPTG without CloD),[15]; listed as Y10A,cells could still grow
"GHSVDRIPEYFGPPGLPGPVLFYC [Cloacaenodin S24C, 117]",Bioactivity Relative to WT,[3],Less
"CC[C@H](C)[C@@H]1NC(=O)[C@H](CCCNC(=N)N)NC(=O)[C@H](CC(=O)O)NC(=O)[C@H](C(C)C)NC(=O)[C@H](CO)NC(=O)[C@H](Cc2c[nH]cn2)NC(=O)CNC(=O)CC[C@@H](C(=O)N[C@@H](Cc2ccc(O)cc2)C(=O)N[C@@H](Cc2ccccc2)C(=O)NCC(=O)N2CCC[C@H]2C(=O)N2CCC[C@H]2C(=O)NCC(=O)N[C@@H](CC(C)C)C(=O)N2CCC[C@H]2C(=O)NCC(=O)N2CCC[C@H]2C(=O)N[C@H](C(=O)N[C@@H](CC(C)C)C(=O)N[C@@H](Cc2ccccc2)C(=O)N[C@@H](Cc2ccc(O)cc2)C(=O)N[C@@H](CO)C(=O)O)C(C)C)NC(=O)[C@@H]2CCCN2C1=O [unthreaded cloacaenodin] (HELM PEPTIDE1{G.H.S.V.D.R.I.P.E.Y.F.G.P.P.G.L.P.G.P.V.L.F.Y.S}$PEPTIDE1,PEPTIDE1,1:R1-9:R3$$$V2.0; C-terminus assumed; bridges inferred)",proteolysis by thermolysin,[16],cleavage of the unthreaded peptide both in its linear and ring segments; also recorded: can be cleaved by thermolysin
"GHSVDRIPEYFGPPGLPGPVLFYY [Cloacaenodin S24Y, 114]",Bioactivity Relative to WT,[3],Comparable
"GHSVDRIPEYFGPPGLPGPVLFYA [Cloacaenodin S24A, 113]",Bioactivity Relative to WT,[3],Comparable
"GHSVDRIPEYFGPPGLPGPVLFYT [Cloacaenodin S24T, 116]",Bioactivity Relative to WT,[3],Less

# — patent publication US20260092086A1, “ANTIMICROBIAL LASSO PEPTIDES” (priority 2022, published 2026)
